# Experimental data reported in patent EP2435019B1, “DODECA-2E,4E-DIENE AMIDES AND THEIR USE AS MEDICAMENTS AND COSMETICS” (Dr. August Wolff GmbH & Co. KG Arzneimittel, priority 2009, dated 2010).
# Read-outs that look alike come from different tables or passages of the source.
# Tests used:
# [1] = biological target: T1, human recombinant Fatty acid amide hydrolase (Homo sapiens, UniProt O00519); test: Inhibition of human recombinant FAAH, fluorometric method (assay G); format: biochemical; settings: human recombinant enzyme, AMC-anandamide substrate (assay G)
# T1 sequence (O00519 1-579): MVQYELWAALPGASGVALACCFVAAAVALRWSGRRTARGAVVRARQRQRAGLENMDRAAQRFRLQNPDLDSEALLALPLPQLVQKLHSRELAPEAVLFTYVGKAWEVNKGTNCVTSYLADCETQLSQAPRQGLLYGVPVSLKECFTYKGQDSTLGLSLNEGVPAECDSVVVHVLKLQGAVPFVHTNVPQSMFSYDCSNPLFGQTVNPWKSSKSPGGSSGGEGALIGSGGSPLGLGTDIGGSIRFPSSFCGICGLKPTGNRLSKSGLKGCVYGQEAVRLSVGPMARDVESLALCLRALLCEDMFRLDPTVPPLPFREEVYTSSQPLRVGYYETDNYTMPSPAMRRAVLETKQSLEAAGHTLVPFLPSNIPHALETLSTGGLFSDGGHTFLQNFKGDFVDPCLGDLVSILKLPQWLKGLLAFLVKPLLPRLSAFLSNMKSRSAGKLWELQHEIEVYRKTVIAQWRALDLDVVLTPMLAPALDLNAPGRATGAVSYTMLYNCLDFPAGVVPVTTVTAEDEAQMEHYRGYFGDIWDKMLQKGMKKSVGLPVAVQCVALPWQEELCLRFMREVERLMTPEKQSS
# Description: FAAH activity is measured using the modified method described by Omeir et al., Arachidonoyl ethanolamide-[1,2-14C] as a substrate for anandamide amidase. Life Sci. 1995;56(23-24):1999-2005. Human recombinant enzyme is preincubated with reference compound (methylarachidonlyfluorophosphonate, MAFP) and test compounds for 30 min at room temperature in 50 mM Tris containing 1 mM EDTA and 0.1% fatty acid free BSA (pH 8.0). Substrate (7-amino-4-methyl coumarin-arachidonamide, AMC-anandamide) is then added and incubated for 30 min at room temperature. The reaction is stopped by the addition of 2.5 µl of 10 µM URB597. Released 7-amino-4-methyl coumarin (AMC) is detected by fluorometry in order to ascertain any interactions of test compounds with the FAAH enzyme.
# Anandamide transport = Anandamide transport (human) cellular functional assay (assay F); format: cell-based; settings: human U-937 cells, 0.1 µM [3H]-Anandamide, 20 min (assay F)
# Description: Anandamide transport is determined using human U-937 cells as receptor source. [3H]-Anandamide (0.1 Ci/mmol), final concentration 0.1 µM is used as substrate. AM-404 is used as reference compound. Reactions are carried out in KRH buffer (pH 7.4) at 37°C for 20 min. The reaction is terminated by rapid vacuum filtration onto glass fiber filters. Radioactivity trapped onto filters is determined and compared to control values in order to ascertain any interactions of test compound with anandamide uptake (Hiiliard C.J. The movement of N-arachidonylethanolamide (anandamide) across cellular membranes. Chem. Physics Lipids. 2008;108:123-134, with modifications).
# FAAH = biological target: T2, FAAH (Sus scrofa, UniProt Q9TUI8); test: Fatty acid amide hydrolase (FAAH) inhibition, pig brain homogenate (assay D); format: biochemical; settings: for FAAH inhibition at 1 µM: pig brain homogenate (assay D)
# T2 construct: 165 µl of diluted pig brain homogenate; from tissue; host or cells: pig brain homogenate
# T2 sequence (Q9TUI8 1-579): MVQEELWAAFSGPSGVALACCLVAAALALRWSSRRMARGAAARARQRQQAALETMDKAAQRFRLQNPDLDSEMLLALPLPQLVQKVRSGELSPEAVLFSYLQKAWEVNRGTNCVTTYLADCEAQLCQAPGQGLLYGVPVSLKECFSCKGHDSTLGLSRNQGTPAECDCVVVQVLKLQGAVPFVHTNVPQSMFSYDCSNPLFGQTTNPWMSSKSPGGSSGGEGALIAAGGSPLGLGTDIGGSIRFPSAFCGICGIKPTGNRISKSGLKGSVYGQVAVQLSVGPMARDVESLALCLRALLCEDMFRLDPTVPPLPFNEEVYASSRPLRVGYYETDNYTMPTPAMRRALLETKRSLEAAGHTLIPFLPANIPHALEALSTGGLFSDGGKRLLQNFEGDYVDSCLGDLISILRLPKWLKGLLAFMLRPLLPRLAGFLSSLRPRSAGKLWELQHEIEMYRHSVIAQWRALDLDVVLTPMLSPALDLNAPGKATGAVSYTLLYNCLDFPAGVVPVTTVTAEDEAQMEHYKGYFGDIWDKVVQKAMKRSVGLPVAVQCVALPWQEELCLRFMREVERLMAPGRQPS
# Description: FAAH activity was assessed using pig brain homogenate according to the method described by Omeir et al., Arachidonoyl ethanolamide-[1,2-14C] as a substrate for anandamide amidase. Life Sci. 1995;56(23-24):1999-2005, and adapted by Fowler et al., Ibuprofen inhibits rat brain deamidation of anandamide at pharmacologically relevant concentrations. Mode of inhibition and structure-activity relationship. J Pharmacol Exp Ther. 1997 Nov;283(2):729-34. Briefly, 10 µl of test compounds at the adequate concentration or solvent were incubated at 37°C for 20 min with 165 µl of diluted pig brain homogenate in 10 mM Tris-HCl and 1 mM EDTA, pH 7.6 (corresponding to 100 µg/ml of total protein), 1% w/v fatty acid free BSA (Sigma, San Louis, MO, US) and 25 µl of a mixture 1:1 of nonradioactive AEA [^3H]-AEA (60 Ci mmol^-1) (concentration in the assay was 2 µM). Successively, 400 µl of a mixture 1:1 (v/v) of methanol:chloroform was added at each sample and, after vigorous vortexing, aqueous and organic phases were separated by centrifugation at 10000 rpm for 10 min. The radioactivity associated to the [^3H]-ethanolamine (produced by FAAH-catalysed breakdown of [^3H]-AEA) was measured upon addition of 3 ml of Ultima Gold scintillation liquid (Perkin Elmer, Waltham, MA, US) to 200 µl of the aqueous (upper) phase, using a Beckman LS6500 scintillation counter. Results were expressed as % of FAAH activity vs. pig brain homogenate treated only with solvent.
# [2] = Critical micelle concentration (CMC) measurement, dye micellization; format: physicochemical; settings: fluorescein dye micellization in water, pH 6.9, room temperature
# Description: Dye micellization was carried out with a modified version of the method described by Eliyahu et al., Novel dextran-spermine conjugates as transfecting agents: comparing water-soluble and micellar polymers. […] Experiments were carried out on 96-well microtiter plates (excitation at 485 nm, emission at 535 nm). Since the emission of fluorescein is pH-dependent, the pH of the mixture was kept constant at 6.9. The CMC range was determined as the concentration range where the first statistically significant increase in fluorescence was detected.
# CB1 = biological target: T3, CB1 (Homo sapiens, UniProt P21554); test: Radioligand displacement assay on CB1 receptor; format: binding; settings: for affinity towards CB1 (in words): summary of Table 3
# T3 construct: purchased Perkin Elmer RBHCB1M
# T3 sequence (P21554 whole entry): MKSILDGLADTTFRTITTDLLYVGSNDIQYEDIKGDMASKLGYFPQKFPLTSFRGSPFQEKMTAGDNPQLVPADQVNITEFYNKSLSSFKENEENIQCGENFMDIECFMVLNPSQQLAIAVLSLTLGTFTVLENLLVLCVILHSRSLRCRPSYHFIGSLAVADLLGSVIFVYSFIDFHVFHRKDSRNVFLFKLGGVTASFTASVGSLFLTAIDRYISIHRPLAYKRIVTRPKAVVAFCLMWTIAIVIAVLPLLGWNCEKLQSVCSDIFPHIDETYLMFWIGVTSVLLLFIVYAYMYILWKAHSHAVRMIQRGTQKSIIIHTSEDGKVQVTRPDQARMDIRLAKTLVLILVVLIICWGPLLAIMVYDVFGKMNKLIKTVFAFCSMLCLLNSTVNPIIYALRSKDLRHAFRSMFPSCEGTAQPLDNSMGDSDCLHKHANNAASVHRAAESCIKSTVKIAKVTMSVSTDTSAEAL
# Description: (§1) For the CB1 receptor, binding experiments were performed in the presence of 0.39 nM of the radioligand [^3H]CP55,940 (168 Ci/mmol) (Perkin Elmer, Waltham, MA, US) at 30°C in siliconized glass vials together with 7.16 µg of membrane recombinantly over-expressing CB1 (No. RBHCB1M, Perkin Elmer, Waltham, MA, US), which was resuspended in 0.2 mL (final volume) binding-buffer (50 mM TRIS-HCl, 2.5 mM EGTA, 5 mM MgCl2, 0.5 mg/mL fatty acid free BSA, pH 7.4). Test compounds were present at varying concentrations and the nonspecific binding of the radioligand was determined in the presence of 10 µM CP55,940 (Tocris Cookson Ltd., Bristol, UK). After 1.5 h incubation, the suspension was rapidly filtered through 0.05% polyethylenimine pre-soaked GF/C glass fiber filters on a 96-well cell harvester and washed nine times with 0.5 mL ice-cold washing-buffer (50 mM TRIS-HCl, 2.5 mM EGTA, 5 mM MgCl2, 2% BSA, pH 7.4). Radioactivity on filters was measured with a Beckman LS 6500 scintillation counter in 3 mL Ultima Gold scintillation liquid (Perkin Elmer, Waltham, MA, US). Data collected from three independent experiments performed in triplicates were normalized between 100% and 0% specific binding for [^3H]CP55,940. […] Derived from the dissociation constant (KD) of [^3H]CP55,940 and the concentration-dependent displacement (IC50 value), inhibition constants (Ki) of competitor compounds were calculated using the Cheng-Prusoff equation [Ki = IC50/(1+ L/KD)].
# [3] = tested on: Arachidonoylethanolamide Transport (AEAT); test: Cellular uptake of [3H]-AEA in U937 cells (assay C); format: cell-based; settings: Homo sapiens, U-937; [3H]-AEA uptake, assay C (Tables 2 and 3)
# CB2 = CB2 (Homo sapiens, UniProt P34972); test: Radioligand displacement assay on CB2 receptor; format: binding; parameters: purchased Perkin Elmer RBXCB2M; settings: for affinity towards CB2 (in words): summary of Table 3
# CB2, sequence (P34972 whole entry): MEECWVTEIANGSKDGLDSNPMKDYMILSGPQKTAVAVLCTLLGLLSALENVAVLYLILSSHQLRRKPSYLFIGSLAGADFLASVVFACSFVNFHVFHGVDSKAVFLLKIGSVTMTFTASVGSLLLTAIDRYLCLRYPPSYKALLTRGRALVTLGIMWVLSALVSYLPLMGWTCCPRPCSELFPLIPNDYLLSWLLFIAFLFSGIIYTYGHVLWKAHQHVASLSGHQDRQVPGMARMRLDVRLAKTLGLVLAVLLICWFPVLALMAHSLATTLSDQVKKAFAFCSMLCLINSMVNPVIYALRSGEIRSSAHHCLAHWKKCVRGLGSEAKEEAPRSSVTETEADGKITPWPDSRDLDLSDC
# Description: as §1
# For CB2-receptor binding studies 3.8 µg of membrane recombinantly over-expressing CB2 (No. RBXCB2M, Perkin Elmer, Waltham, MA, US) were resuspended in 0.6 mL binding buffer (see above) together with 0.11 nM of the radioligand [^3H]CP55,940. The CB2-binding assay was conducted in the same manner as for CB1.
SMILES,FAAH inhibition at 1 µM [1],AEAT inhibition at 1 µM (Anandamide transport),other results
CCCCCCC/C=C/C=C/C(=O)NC(CO)Cc1cccs1 (stereo not drawn) [Example 49],25 % of control,25 % of control,
CCCCCCC/C=C/C=C/C(=O)Nc1ccccc1 [Example 24],2 % of control,30 % of control,
CCCCCCC/C=C/C=C/C(=O)NCc1cccn1C [Example 5],,,inhibition at 1 µM (FAAH; read-out: maximal inhibition of FAAH activity): 32%; CMC [2]: < 1 µM
"CCCCCCC/C=C/C=C/C(=O)NCCC(C)C [Compound C, (2E,4E)-N-isopentyldodeca-2,4-diene amide]",,,FAAH inhibition at 1 µM (FAAH): <10 % of control; Ki (CB1): > 20000 nM; affinity towards CB1 (in words) (CB1): no affinity; EC50 [3]: > 10000 nM; Ki (CB2): 1455 ± 14 nM; affinity towards CB2 (in words) (CB2): moderate affinity; CMC [2]: >5 µM
CCCCCCC/C=C/C=C/C(=O)Nc1ccc(Oc2ccc(C(F)(F)F)cc2)cc1 [Example 84],30 % of control,30 % of control,
CCCCCCC/C=C/C=C/C(=O)Nc1nc2cc(C)c(C)cc2s1 [Example 72],30 % of control,37 % of control,
"CCCCCCC/C=C/C=C/C(=O)N1CCCCC1 [Compound E, (2E,4E)-1-(piperidin-1-yl)dodeca-2,4-dien-1-one]",,,"FAAH inhibition at 1 µM (FAAH): <10 % of control; Ki (CB1; displacement of 0.39 nM [3H]CP55,940, membrane recombinantly over-expressing CB1, read-out: Receptor affinity Ki CB1): 2190 ± 180 nM; affinity towards CB1 (in words) (CB1): moderate affinity; EC50 [3]: > 10000 nM; Ki (CB2; displacement of 0.11 nM [3H]CP55,940, membrane recombinantly over-expressing CB2, read-out: Receptor affinity Ki CB2): 2640 ± 224 nM; affinity towards CB2 (in words) (CB2): moderate affinity; CMC [2]: >5 µM"
CCCCCCC/C=C/C=C/C(=O)NCCc1ccccn1 [Example 68],-2 % of control,41 % of control,
CCCCCCC/C=C/C=C/C(=O)NCC(O)c1ccc(OC)cc1 (stereo not drawn) [Example 56],-1 % of control,36 % of control,
CCCCCCC/C=C/C=C/C(=O)Nc1nccs1 [Example 20],-16 % of control,47 % of control,EC50 [3]: 780 ± 250 nM
CCCCCCC/C=C/C=C/C(=O)Nc1ccc(C2=NCCS2)cc1 [Example 37],9 % of control,38 % of control,
CCCCCCC/C=C/C=C/C(=O)NCCc1ccsc1 [Example 19],53 % of control,34 % of control,EC50 [3]: 520 ± 470 nM
"CCCCCCC/C=C/C=C/C(=O)NCc1ccoc1 [Example 4, (2E,4E)-N-(furan-3-ylmethyl)dodeca-2,4-diene amide]",,,inhibition at 2 µM (FAAH; read-out: max. inhibition of FAAH activity): 40%; CMC [2]: < 3 µM
CCCCCCC/C=C/C=C/C(=O)NCCc1ccco1 [Example 16],42 % of control,57 % of control,EC50 [3]: 890 ± 400 nM
"CCCCCCC/C=C/C=C/C(=O)NCc1ccc(OC)cc1 [Example 7, (2E,4E)-N-(4-methoxybenzyl)dodeca-2,4-diene amide]",6 % of control,28 % of control,"effect on FAAH activity in combination with the FAAH inhibitor URB597 (FAAH; Figure 3, low nM concentrations): synergistic effects"
CCCCCCC/C=C/C=C/C(=O)Nc1nc2ccccc2s1 [Example 35],61 % of control,42 % of control,
CCCCCCC/C=C/C=C/C(=O)NCc1nnn(C(=O)N(C)C)n1 [Example 39],101 % of control,120 % of control,
CCCCCCC/C=C/C=C/C(=O)NCCc1ccnc(OC)c1 [Example 47],6 % of control,50 % of control,
CCCCCCC/C=C/C=C/C(=O)NCc1ccccc1 [Example 25],2 % of control,47 % of control,
CCCCCCC/C=C/C=C/C(=O)NCC(C)O (stereo not drawn) [Example 41],45 % of control,27 % of control,
